Test results from patent publication US20140051679A1, “KINASE INHIBITORS AND METHOD OF TREATING CANCER WITH SAME” (UNIVERISTY HEALTH NETWORKS, priority 2011, published 2014).

Key:
human TTK = molecular target: T1, human TTK (Homo sapiens, UniProt P33981); test: TTK inhibition assay (indirect ELISA); format: biochemical; conditions: GST-TTK 0.68 nM, 16 μM ATP; read-out: IC50 Ranges TTK
T1 construct: amino terminal GST fusion of full length human TTK; purchased Invitrogen
T1 sequence (P33981 1-857): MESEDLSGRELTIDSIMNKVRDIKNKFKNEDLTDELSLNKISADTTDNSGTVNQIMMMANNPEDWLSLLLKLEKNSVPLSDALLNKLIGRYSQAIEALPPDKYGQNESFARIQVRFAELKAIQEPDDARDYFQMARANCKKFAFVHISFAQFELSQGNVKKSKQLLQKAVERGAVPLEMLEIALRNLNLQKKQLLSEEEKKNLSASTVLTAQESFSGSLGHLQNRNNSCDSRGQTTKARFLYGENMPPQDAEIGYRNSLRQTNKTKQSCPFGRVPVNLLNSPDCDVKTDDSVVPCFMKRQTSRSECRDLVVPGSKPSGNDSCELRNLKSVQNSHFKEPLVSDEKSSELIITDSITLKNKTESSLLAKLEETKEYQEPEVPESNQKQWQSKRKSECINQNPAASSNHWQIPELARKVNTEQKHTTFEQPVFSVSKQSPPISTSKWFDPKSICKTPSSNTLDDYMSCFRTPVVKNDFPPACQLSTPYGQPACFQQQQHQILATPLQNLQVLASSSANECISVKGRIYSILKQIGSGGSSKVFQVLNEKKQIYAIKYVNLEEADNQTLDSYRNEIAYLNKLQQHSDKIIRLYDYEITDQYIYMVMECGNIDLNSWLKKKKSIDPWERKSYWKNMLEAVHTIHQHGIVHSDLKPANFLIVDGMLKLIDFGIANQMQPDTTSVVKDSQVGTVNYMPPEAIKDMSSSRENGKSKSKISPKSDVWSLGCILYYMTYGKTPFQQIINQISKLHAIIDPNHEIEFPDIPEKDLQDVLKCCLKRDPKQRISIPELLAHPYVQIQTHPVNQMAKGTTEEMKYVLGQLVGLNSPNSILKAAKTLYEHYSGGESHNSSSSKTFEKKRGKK

human PLK4 = molecular target: T2, human PLK4 (Homo sapiens, UniProt O00444); test: PLK4 inhibition assay (indirect ELISA); format: biochemical; conditions: GST-PLK4 4 nM, 15 μM ATP; read-out: IC50 Ranges PLK4
T2 construct: amino terminal GST fusion of residues 1-391 of human PLK4; made in house; host or cells: E. coli
T2 sequence (O00444 1-391): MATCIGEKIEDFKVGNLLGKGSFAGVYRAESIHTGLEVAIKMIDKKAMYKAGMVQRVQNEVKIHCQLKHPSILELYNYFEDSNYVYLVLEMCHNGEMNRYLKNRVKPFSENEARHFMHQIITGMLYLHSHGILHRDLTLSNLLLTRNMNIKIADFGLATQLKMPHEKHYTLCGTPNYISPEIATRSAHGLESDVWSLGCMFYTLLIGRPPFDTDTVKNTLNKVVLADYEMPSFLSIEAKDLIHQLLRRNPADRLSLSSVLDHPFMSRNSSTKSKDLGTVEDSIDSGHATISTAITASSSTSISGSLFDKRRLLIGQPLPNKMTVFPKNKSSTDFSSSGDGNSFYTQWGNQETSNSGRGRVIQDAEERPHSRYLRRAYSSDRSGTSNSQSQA
How it was run: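 Compounds were tested either at a single 10 μM dose or across 10-point titrations (typically 0.5 to 0.001 μM), preincubated 15 min with 4 nM GST-PLK4 (human 1-391, dephosphorylated) before 15 μM ATP was added. MBP substrate phosphorylation over 30 min, pH 7.5 HEPES/MgCl2 buffer, read by HRP/TMB ELISA (450 nm). % inhibition vs. high-activity control; IC50 by logistic fit.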

Aurora B = molecular target: T3, Aurora B (Homo sapiens, UniProt Q96GD4); test: Aurora B inhibition assay (Z-Lyte); format: biochemical; conditions: 28 nM Aurora B, 128 μM ATP; read-out: IC50 Ranges Aurora B
T3 construct: purchased Invitrogen PV3970
Protocol: Aurora B inhibition was determined using the Z-Lyte assay kit from Invitrogen. The assay was performed using the recommended manufacturer's instructions with 128 μM ATP and 28 nM Aurora B (Invitrogen cat #PV3970). The % inhibition values were determined according to the manufacturer's directions and IC50 values were obtained using a non-linear 4 point logistic curve fit (XLfit4, IDBS)

[1] = test system: MDA-MB-231 breast cancer cells; test: Cell growth inhibition, Sulforhodamine B assay, MDA-MB-231; format: cell-based; conditions: Homo sapiens, 120 h, 5 days culture, SRB assay, read-out: Cell Line GI50 Range MDA-MB-231
[2] = test system: MDA-MB-468 breast cancer cells; test: Cell growth inhibition, Sulforhodamine B assay, MDA-MB-468; format: cell-based; conditions: Homo sapiens, 120 h, 5 days culture, SRB assay, read-out: Cell Line GI50 Range MDA-MB-468
Protocol: (§1) Breast cancer cells (MDA-MB-231, MDA-MB-468), colon cancer cells (HCT116, HT29) and ovarian cancer cells (PA-1, OVCAR-3) were seeded (1000 to 4000 in 80 μl per well depending on the cell growth rate) into 96 well plates 24 hours before compound overlay. Compounds were prepared as 10 mM stock solutions in 100% DMSO which were diluted with DMEM (Dulbecco's Modified Eagle's Medium) cell growth Medium (Invitrogen, Burlington, ON, Canada) containing 10% FBS (Fetal Bovine Serum) to concentrations ranging from 50 nM to 250 μM. Aliquots (20 μl) from each concentration were overlaid to 80 μl of the pre-seeded cells in the 96 well plates to make final concentrations of 10 nM to 50 μM. The cells were cultured for 5 days before the Sulforhodamine B assay (SRB) was performed to determine the compound's cell growth inhibition activity.
(§2) Sulforhodamine B (purchased from Sigma, Oakville, ON, Canada) is a water-soluble dye that binds to the basic amino acids of the cellular proteins. Thus, colorimetric measurement of the bound dye provides an estimate of the total protein mass that is related to the cell number. the cells are fixed in situ by gently aspirating off the culture media and adding 50 μl ice cold 10% Trichloroacetic Acid (TCA) per well and incubate at 4° C. for 30-60 min, The plates are washed with water five times and allowed to air dry for 5 min. Addition of 50 μl 0.4% (w/v) SRB solution in 1% (v/v) acetic acid to each well and incubatation for 30 min at RT completes the staining reaction. Following staining, plates are washed four times with 1% acetic acid to remove unbound dye and then allowed to air dry for 5 min. The stain is solubilized with 100 μl of 10 mM Tris pH 10.5 per well. Absorbance is read at 570 nm.
(§3) The percentage (%) of relative growth inhibition was calculated by comparing to DMSO treated only cells (100%). […] The GI50 was calculated using GraphPad PRISM software (GraphPad Software, Inc., San Diego, Calif., USA).

[3] = test system: HCT116 colon cancer cells; test: Cell growth inhibition, Sulforhodamine B assay, HCT116; format: cell-based; conditions: Homo sapiens, HCT-116, 120 h, 5 days culture, SRB assay, read-out: Cell Line GI50 Range HCT116
HT29 colon cancer cells = test: Cell growth inhibition, Sulforhodamine B assay, HT29; format: cell-based; conditions: Homo sapiens, HT-29, 120 h, 5 days culture, SRB assay, read-out: Cell Line GI50 Range HT29
Protocol: as §1, §2, §3

[4] = test system: OVCAR-3 ovarian cancer cells; test: Cell growth inhibition, Sulforhodamine B assay, OVCAR-3; format: cell-based; conditions: Homo sapiens, 120 h, 5 days culture, SRB assay, read-out: Cell Line GI50 Range OVCAR-3
[5] = test system: Colon tumor initiating cells (TICs), 12 colon; test: Colon tumor-initiating cell growth inhibition (Alamar Blue); format: cell-based; conditions: 216 h, 9 days, read-out: GI50 range 12 colon
Text: Materials and Methods: Non-tissue or tissure cultured treated T-75 flask and 96-well plates were purchased from VWR. Vitamin B-27 supplement, MEM NEAA (minimum essential medium non essential amino acids), sodium pyruvate, L-glutamine, N2 supplement, penicillin-streptomycin and fungizone/amphotericin B were obtained from Invitrogen. Lipid mixture, heparin and EGF were purchased from Sigma; bFGF from BD Biosciences. Colon tumor initiating cells (TICs) were routinely maintained using non-tissue cultured treated T-75 flasks in DMEM:F12 medium containing 0.2XB-27 supplement, 4 ug/ml heparin, 1XMEM NEAA, 1× sodium pyruvate, 1 mM glutamine, 10 pg/ul bFGF, 20 pg/ul EGF, 1×N2 supplement, lipid mixture, penicillin-streptomycin and fungizone/amphotericin B. Ovarian TICs were routinely maintained using tissue cultured treated T-75 flasks in DMEM:F12 medium containing 1XB-27 supplement, 4 ug/ml heparin, 20 pg/ul bFGF, 20 pg/ul EGF and penicillin-streptomycin.
Compounds described herein were dissolved in DMSO and further diluted in cell culture medium for GI50 determination. Colon TICs were trypsinized and seeded into non-tissue cultured treated 96-well plates with 4,000 cells/well. After 24 h, compound was added into the cell culture at different concentrations, and the final concentration of DMSO was adjusted to 0.1%. Cells were then cultured at 37° C. for 9 days. Ovarian TICs were trypsinized and seeded into tissue cultured treated 96-well plates with 1,000 cells/well. After 24 h, compound was added into the cell culture at different concentrations, and the final concentration of DMSO was adjusted to 0.1%. Cells were then cultured at 37° C. for 6 days. Cell viability was assessed by Alamar Blue assay: 10 ul of Alamar Blue was added into each well. After 4 hours incubation at 37° C., fluorescence was recorded at excitation 544 and emission 590. GI50 (Growth inhibition) was calculated using GraphPad Prism 4.0 software.

[6] = test system: Ovarian TICs, 2393A ovarian; test: Ovarian tumor-initiating cell growth inhibition (Alamar Blue); format: cell-based; conditions: 144 h, 6 days, read-out: GI50 range 2393A ovarian
[7] = test system: PA-1 ovarian cancer cells; test: Cell growth inhibition, Sulforhodamine B assay, PA-1; format: cell-based; conditions: 120 h, 5 days culture, SRB assay, read-out: Cell Line GI50 Range PA-1

T3 sequence (Q96GD4 whole entry): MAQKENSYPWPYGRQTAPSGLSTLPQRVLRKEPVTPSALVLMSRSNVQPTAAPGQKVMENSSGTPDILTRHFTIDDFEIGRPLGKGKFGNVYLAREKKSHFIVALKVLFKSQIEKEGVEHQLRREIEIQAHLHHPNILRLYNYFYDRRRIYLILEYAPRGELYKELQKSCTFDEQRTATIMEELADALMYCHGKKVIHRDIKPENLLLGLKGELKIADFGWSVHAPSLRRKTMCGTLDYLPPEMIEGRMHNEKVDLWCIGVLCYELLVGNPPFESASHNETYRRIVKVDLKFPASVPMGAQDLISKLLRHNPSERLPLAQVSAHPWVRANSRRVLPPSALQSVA

Row | SMILES | IC50 (human TTK) | IC50 (human PLK4) | IC50 (Aurora B) | GI50 [1] | GI50 [2] | GI50 [3] | GI50 (HT29 colon cancer cells) | GI50 [4] | GI50 [5] | GI50 [6] | GI50 [7]
1 | O=C(Nc1ccc2[nH]nc(-c3ccc(N4CCOCC4)cc3)c2c1)C(c1ccsc1)N1CCCC1 (centres unmarked) [Example A4, N-(3-(4-morpholinophenyl)-1H-indazol-5-yl)-2-(pyrrolidin-1-yl)-2-(thiophen-3-yl)acetamide] | ≤ 5 µM | ≤ 5 µM | ≤ 5 µM | ≤ 5 µM | ≤ 5 µM | ≤ 5 µM | ≤ 5 µM | 5 to 20 µM | ≤ 5 µM | ≤ 5 µM | 
2 | O=C(NC(c1ccccc1)C1CC1)c1ccc2[nH]nc(-c3ccc(N4CCOCC4)cc3)c2c1 (centres unmarked) [Example A12, N-(cyclopropyl(phenyl)methyl)-3-(4-morpholinophenyl)-1H-indazole-5-carboxamide] | ≤ 5 µM | ≤ 5 µM | ≤ 5 µM |  | ≤ 5 µM | ≤ 5 µM |  |  | ≤ 5 µM | ≤ 5 µM | 
3 | CN1CCC(Nc2ccc(-c3n[nH]c4ccc(NC(=O)C(c5ccsc5)N5CCCC5)cc34)cc2)CC1 (centres unmarked) [Example A25] | ≤ 5 µM | ≤ 5 µM | ≤ 5 µM | ≤ 5 µM | ≤ 5 µM | ≤ 5 µM | ≤ 5 µM | ≤ 5 µM | ≤ 5 µM | ≤ 5 µM | 
4 | CO[C@@H](C(=O)Nc1ccc2[nH]nc(-c3ccc(OC4CCN(C)CC4)cc3)c2c1)c1ccccc1 [Example A27, (R)-2-methoxy-N-(3-(4-((1-methylpiperidin-4-yl)oxy)phenyl)-1H-indazol-5-yl)-2-phenylacetamide] | ≤ 5 µM | ≤ 5 µM | ≤ 5 µM | 5 to 20 µM | ≤ 5 µM | ≤ 5 µM | ≤ 5 µM | 5 to 20 µM | ≤ 5 µM | ≤ 5 µM | 
5 | O=C(Nc1ccc2[nH]nc(-c3ccc(OC4CCOCC4)cc3)c2c1)C(c1ccsc1)N1CCCC1 (centres unmarked) [Example A29, 2-(pyrrolidin-1-yl)-N-(3-(4-((tetrahydro-2H-pyran-4-yl)oxy)phenyl)-1H-indazol-5-yl)-2-(thiophen-3-yl)acetamide] | ≤ 5 µM | ≤ 5 µM | ≤ 5 µM | 5 to 20 µM | ≤ 5 µM | ≤ 5 µM | ≤ 5 µM | 5 to 20 µM | ≤ 5 µM | ≤ 5 µM | 
6 | CN1CCC(Oc2ccc(-c3n[nH]c4ccc(C(=O)NC(c5ccsc5)C5CC5)cc34)cc2)CC1 (centres unmarked) [Example A33, N-(cyclopropyl(thiophen-3-yl)methyl)-3-(4-((1-methylpiperidin-4-yl)oxy)phenyl)-1H-indazole-5-carboxamide] | ≤ 5 µM | ≤ 5 µM | ≤ 5 µM | ≤ 5 µM | ≤ 5 µM | ≤ 5 µM | ≤ 5 µM | ≤ 5 µM | ≤ 5 µM | ≤ 5 µM | 
7 | O=C(NC(c1ccsc1)C1CC1)c1ccc2[nH]nc(-c3ccc(N4CCOCC4)cc3)c2c1 (centres unmarked) [Example A35, N-(cyclopropyl(thiophen-3-yl)methyl)-3-(4-morpholinophenyl)-1H-indazole-5-carboxamide] | ≤ 5 µM | ≤ 5 µM | ≤ 5 µM | ≤ 5 µM | ≤ 5 µM | ≤ 5 µM | ≤ 5 µM | ≤ 5 µM | ≤ 5 µM | ≤ 5 µM | 
8 | C[C@H]1CCCN1[C@H](C(=O)Nc1ccc2[nH]nc(-c3ccc(OC4CCN(C)CC4)cc3)c2c1)c1ccsc1 [Example A41, (S)—N-(3-(4-((1-methylpiperidin-4-yl)oxy)phenyl)-1H-indazol-5-yl)-2-((S)-2-methylpyrrolidin-1-yl)-2-(thiophen-3-yl)acetamide] | ≤ 5 µM | ≤ 5 µM | ≤ 5 µM |  | ≤ 5 µM | ≤ 5 µM | ≤ 5 µM | ≤ 5 µM | ≤ 5 µM | ≤ 5 µM | 
9 | CCc1cccc(CC)c1NC(=O)Nc1ccc2[nH]nc(-c3ccc(OC4CCN(C)CC4)cc3)c2c1 [Example A46] | ≤ 5 µM | ≤ 5 µM | ≤ 5 µM | ≤ 5 µM | ≤ 5 µM | ≤ 5 µM | ≤ 5 µM | ≤ 5 µM | ≤ 5 µM | ≤ 5 µM | 
10 | COCCN1CCC(Oc2ccc(-c3n[nH]c4ccc(C(=O)NC(c5ccccc5)C5CCCC5)cc34)cc2)CC1 (centres unmarked) [Example A161, N-(cyclopentyl(phenyl)methyl)-3-(4-((1-(2-methoxyethyl)piperidin-4-yl)oxy)phenyl)-1H-indazole-5-carboxamide] | ≤ 5 µM | ≤ 5 µM | ≤ 5 µM | ≤ 5 µM | ≤ 5 µM | ≤ 5 µM | ≤ 5 µM | ≤ 5 µM |  |  | ≤ 5 µM
11 | CC(C)(O)C1CCN(c2ccc(-c3n[nH]c4ccc(C(=O)NC(c5ccccn5)C5CC5)cc34)cc2)CC1 (centres unmarked) [Example A180, N-(cyclopropyl(pyridin-2-yl)methyl)-3-(4-(4-(2-hydroxypropan-2-yl)piperidin-1-yl)phenyl)-1H-indazole-5-carboxamide] | ≤ 5 µM | ≤ 5 µM | ≤ 5 µM |  | ≤ 5 µM | ≤ 5 µM |  |  | ≤ 5 µM | ≤ 5 µM | ≤ 5 µM
12 | O=CN1CCC(Oc2ccc(-c3n[nH]c4ccc(C(=O)NC(c5ccccc5F)C5CC5)cc34)cc2)CC1 (centres unmarked) [Example A182, N-(cyclopropyl(2-fluorophenyl)methyl)-3-(4-((1-formylpiperidin-4-yl)oxy)phenyl)-1H-indazole-5-carboxamide] | ≤ 5 µM | ≤ 5 µM | ≤ 5 µM |  | ≤ 5 µM | ≤ 5 µM |  |  | ≤ 5 µM | ≤ 5 µM | ≤ 5 µM
13 | O=C(Nc1ccc2[nH]nc(-c3ccc(OC4CCN(C5COC5)CC4)cc3)c2c1)C(c1ccccc1)C1CC1 (centres unmarked) [Example A185, 2-cyclopropyl-N-(3-(4-((1-(oxetan-3-yl)piperidin-4-yl)oxy)phenyl)-1H-indazol-5-yl)-2-phenylacetamide] | ≤ 5 µM | ≤ 5 µM | ≤ 5 µM |  | ≤ 5 µM | ≤ 5 µM |  |  | ≤ 5 µM | ≤ 5 µM | ≤ 5 µM
